Reference: ChEMBL document CHEMBL5352421, “Identification of novel piperazine-tethered phthalazines as selective CDK1 inhibitors endowed with in vitro anticancer activity toward the pancreatic cancer” (Eur J Med Chem, 2022)
Calls of active or inactive are those of the source. No cut-off for these calls is given here.

Assays:
G-361 = experiment: Antiproliferative activity against human G-361 cells assessed as growth inhibition incubated at 10 uM for 24 hrs by MTT assay relative to control; assay type: functional; conditions: read-out: GI
MOLT-4 = experiment: Antiproliferative activity against human MOLT-4 cells assessed as growth inhibition incubated at 10 uM for 24 hrs by MTT assay relative to control; assay type: functional; conditions: read-out: GI
[1] = Antiproliferative activity against human MDA-PATC53 cells assessed as growth inhibition incubated at 10 uM for 24 hrs by MTT assay relative to control; assay type: functional; conditions: read-out: GI
[2] = target: T1, Tyrosine-protein kinase receptor UFO (Homo sapiens, UniProt P30530); experiment: Inhibition of AXL (unknown origin) by FRET assay
T1 sequence (P30530 whole entry): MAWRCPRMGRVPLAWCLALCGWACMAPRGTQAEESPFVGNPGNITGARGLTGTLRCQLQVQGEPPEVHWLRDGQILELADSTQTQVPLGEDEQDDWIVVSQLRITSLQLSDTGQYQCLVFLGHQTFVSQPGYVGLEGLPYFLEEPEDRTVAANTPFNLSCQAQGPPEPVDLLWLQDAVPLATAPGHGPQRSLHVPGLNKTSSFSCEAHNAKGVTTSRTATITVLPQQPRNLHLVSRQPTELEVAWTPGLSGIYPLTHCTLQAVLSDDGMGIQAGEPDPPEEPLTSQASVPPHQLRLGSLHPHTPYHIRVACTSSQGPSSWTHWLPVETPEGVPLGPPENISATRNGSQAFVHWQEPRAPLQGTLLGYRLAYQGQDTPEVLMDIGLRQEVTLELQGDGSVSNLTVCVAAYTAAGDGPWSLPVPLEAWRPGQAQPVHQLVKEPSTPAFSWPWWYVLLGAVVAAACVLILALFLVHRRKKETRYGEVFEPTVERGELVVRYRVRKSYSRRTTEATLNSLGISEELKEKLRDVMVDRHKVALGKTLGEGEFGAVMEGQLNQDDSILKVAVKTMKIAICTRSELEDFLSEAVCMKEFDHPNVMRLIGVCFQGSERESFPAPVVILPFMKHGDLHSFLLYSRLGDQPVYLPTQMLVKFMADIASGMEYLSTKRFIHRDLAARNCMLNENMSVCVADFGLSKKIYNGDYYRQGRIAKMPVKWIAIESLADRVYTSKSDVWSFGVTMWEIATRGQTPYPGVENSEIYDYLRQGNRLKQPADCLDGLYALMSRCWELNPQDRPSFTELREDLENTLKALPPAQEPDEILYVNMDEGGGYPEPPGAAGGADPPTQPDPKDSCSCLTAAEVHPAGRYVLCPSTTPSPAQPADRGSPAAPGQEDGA

[3] = target: Fibroblast growth factor receptor (Homo sapiens, UniProt P22607+P11362+P22455+P21802); experiment: Inhibition of FGFR (unknown origin) by FRET assay; assay type: protein assay
MCF7 = experiment: Antiproliferative activity against human MCF7 cells assessed as growth inhibition incubated at 10 uM for 24 hrs by MTT assay relative to control; assay type: functional; conditions: read-out: GI
[4] = target: Insulin-like growth factor 1 receptor (Homo sapiens, UniProt P08069); experiment: Inhibition of IGF1R (unknown origin) by FRET assay
Chain of Insulin-like growth factor 1 receptor (P08069 31-736 limits assumed): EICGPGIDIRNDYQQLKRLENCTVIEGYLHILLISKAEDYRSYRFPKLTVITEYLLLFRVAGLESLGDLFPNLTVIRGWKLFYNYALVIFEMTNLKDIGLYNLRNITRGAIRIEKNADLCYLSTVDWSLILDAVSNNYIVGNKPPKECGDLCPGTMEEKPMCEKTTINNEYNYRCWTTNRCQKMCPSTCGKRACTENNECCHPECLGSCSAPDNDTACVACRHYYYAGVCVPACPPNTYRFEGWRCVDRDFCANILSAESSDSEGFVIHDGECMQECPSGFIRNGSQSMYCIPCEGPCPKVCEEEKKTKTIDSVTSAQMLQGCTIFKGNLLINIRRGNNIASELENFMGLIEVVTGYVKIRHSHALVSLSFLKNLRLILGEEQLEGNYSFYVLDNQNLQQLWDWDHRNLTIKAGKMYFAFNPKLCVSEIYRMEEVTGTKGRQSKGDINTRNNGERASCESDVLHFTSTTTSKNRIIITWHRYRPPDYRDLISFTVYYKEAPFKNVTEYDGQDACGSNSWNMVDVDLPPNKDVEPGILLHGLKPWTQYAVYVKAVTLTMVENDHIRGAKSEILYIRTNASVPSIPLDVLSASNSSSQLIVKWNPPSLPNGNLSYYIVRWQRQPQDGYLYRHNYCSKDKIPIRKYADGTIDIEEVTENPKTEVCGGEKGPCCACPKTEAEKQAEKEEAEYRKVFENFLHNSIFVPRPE
Chain of Insulin-like growth factor 1 receptor (P08069 741-1367 limits assumed): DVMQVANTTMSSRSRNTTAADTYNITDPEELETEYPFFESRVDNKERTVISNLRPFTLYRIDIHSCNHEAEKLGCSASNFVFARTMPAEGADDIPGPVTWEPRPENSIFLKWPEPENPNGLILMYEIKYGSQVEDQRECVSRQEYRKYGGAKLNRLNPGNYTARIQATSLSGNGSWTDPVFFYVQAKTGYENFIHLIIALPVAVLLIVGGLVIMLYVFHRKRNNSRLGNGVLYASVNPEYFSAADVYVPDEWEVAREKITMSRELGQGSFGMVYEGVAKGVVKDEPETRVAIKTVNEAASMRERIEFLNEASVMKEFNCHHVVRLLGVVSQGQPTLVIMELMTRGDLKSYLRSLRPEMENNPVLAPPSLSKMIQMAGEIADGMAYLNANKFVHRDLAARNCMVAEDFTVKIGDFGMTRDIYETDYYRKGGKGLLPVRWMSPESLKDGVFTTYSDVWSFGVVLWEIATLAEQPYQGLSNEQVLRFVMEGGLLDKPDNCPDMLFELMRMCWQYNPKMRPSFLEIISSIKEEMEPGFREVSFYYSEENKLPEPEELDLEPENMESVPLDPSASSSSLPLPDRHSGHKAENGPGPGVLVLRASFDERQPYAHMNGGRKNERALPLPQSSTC

[5] = target: Cyclin-dependent kinase 5 (Homo sapiens, UniProt Q00535); experiment: Inhibition of CDK5 (unknown origin) by FRET assay
Chain of Cyclin-dependent kinase 5 (Q00535 whole entry): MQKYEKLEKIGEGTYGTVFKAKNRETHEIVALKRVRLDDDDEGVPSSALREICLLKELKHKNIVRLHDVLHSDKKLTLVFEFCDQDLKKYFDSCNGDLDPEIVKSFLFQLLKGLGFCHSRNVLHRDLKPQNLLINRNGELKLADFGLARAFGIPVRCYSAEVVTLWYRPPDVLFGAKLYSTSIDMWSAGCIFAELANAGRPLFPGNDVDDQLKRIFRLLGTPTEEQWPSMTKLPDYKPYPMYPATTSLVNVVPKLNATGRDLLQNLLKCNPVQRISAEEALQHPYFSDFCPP

[6] = target: Tyrosine-protein kinase JAK1 (Homo sapiens, UniProt P23458); experiment: Inhibition of JAK1 (unknown origin) by FRET assay
Chain of Tyrosine-protein kinase JAK1 (P23458 whole entry): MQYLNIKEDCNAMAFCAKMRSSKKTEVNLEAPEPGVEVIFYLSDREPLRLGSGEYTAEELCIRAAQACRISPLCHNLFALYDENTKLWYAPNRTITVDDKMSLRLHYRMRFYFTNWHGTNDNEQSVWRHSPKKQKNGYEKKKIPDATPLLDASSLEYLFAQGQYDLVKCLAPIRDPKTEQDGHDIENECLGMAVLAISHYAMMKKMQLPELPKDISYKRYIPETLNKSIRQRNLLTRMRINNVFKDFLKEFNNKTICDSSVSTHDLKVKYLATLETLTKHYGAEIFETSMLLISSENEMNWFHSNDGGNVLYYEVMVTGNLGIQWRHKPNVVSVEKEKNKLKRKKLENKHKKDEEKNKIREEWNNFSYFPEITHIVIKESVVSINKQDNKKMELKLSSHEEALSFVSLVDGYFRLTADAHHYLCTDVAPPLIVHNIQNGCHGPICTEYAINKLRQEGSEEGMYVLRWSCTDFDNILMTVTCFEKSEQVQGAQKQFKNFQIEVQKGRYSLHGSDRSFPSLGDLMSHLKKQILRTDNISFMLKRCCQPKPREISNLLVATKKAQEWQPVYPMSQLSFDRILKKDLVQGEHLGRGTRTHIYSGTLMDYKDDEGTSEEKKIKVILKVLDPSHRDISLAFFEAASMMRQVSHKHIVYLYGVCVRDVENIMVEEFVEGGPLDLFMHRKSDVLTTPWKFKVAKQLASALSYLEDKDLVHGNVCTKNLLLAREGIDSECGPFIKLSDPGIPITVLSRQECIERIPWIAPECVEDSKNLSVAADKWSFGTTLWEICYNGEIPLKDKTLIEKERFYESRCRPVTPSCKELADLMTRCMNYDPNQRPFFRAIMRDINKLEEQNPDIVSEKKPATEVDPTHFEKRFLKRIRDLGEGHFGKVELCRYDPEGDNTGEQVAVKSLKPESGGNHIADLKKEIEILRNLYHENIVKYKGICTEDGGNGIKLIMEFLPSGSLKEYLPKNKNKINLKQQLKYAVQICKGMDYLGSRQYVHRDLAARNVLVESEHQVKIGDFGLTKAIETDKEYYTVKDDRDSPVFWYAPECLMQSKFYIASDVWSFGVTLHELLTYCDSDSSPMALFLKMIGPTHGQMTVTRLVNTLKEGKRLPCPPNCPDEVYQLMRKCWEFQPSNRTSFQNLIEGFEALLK

[7] = target: Cyclin-dependent kinase 2 (Homo sapiens, UniProt P24941); experiment: Inhibition of CDK2 (unknown origin) by FRET assay
[8] = Induction of cell cycle arrest in human MDA-PATC53 cells assessed as accumulation of cells at G2/M phase incubated at IC50 for 24 hrs measured by flow cytometric analysis (reference value: 9%); assay type: functional
KG-1 = experiment: Antiproliferative activity against human KG-1 cells assessed as growth inhibition incubated at 10 uM for 24 hrs by MTT assay relative to control; assay type: functional; conditions: read-out: GI
[9] = Antiproliferative activity against human PL45 cells assessed as growth inhibition incubated at 10 uM for 24 hrs by MTT assay relative to control; assay type: functional; conditions: read-out: GI
[10] = Selectivity index, ratio of IC50 for CDK2 (unknown origin) to CDK1 (unknown origin)
[11] = target: Serine/threonine-protein kinase B-raf (Homo sapiens, UniProt P15056); experiment: Inhibition of BRAF (unknown origin) by FRET assay
Chain of Serine/threonine-protein kinase B-raf (P15056 whole entry): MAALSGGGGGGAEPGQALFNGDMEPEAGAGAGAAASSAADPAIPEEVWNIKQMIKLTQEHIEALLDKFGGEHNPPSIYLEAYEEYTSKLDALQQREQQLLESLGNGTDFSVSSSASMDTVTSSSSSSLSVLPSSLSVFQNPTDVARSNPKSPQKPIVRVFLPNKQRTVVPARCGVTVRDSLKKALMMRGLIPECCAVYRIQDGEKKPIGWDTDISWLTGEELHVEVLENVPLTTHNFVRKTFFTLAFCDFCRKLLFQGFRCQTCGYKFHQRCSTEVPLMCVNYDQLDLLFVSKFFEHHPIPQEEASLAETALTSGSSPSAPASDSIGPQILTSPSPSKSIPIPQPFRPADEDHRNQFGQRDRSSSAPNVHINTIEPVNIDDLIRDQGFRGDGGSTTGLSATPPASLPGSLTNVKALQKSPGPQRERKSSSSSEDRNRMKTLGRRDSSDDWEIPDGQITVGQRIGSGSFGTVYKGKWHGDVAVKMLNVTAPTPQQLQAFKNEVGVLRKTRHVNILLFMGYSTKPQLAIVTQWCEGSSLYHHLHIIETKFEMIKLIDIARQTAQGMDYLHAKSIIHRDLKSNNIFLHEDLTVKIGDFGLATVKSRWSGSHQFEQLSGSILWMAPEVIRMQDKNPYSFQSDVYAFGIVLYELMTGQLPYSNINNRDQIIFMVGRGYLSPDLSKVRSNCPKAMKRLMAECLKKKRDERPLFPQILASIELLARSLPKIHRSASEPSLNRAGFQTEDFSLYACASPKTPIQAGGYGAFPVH

A-375 = experiment: Antiproliferative activity against human A-375 cells assessed as growth inhibition incubated at 10 uM for 24 hrs by MTT assay relative to control; assay type: functional; conditions: read-out: GI
MDA-PATC53 [12] = experiment: Induction of cell cycle arrest in human MDA-PATC53 cells assessed as accumulation of cells at S phase incubated at IC50 for 24 hrs measured by flow cytometric analysis; assay type: functional, cell-based
[13] = Selectivity index, ratio of IC50 for CDK5 (unknown origin) to CDK1 (unknown origin)
MDA-PATC53 [14] = experiment: Downregulation of CDK1 expression in human MDA-PATC53 cells incubated at IC50 for 24 hrs by Western blotting analysis; assay type: functional, cell-based
[15] = Antiproliferative activity against human MDA-PATC53 cells assessed as growth inhibition incubated for 24 hrs by MTT assay; assay type: functional, cell-based; conditions: MDA-PATC53, 24 h
HT-29 = experiment: Antiproliferative activity against human HT-29 cells assessed as growth inhibition incubated at 10 uM for 24 hrs by MTT assay relative to control; assay type: functional; conditions: read-out: GI
BT-549 = experiment: Antiproliferative activity against human BT-549 cells assessed as growth inhibition incubated at 10 uM for 24 hrs by MTT assay relative to control; assay type: functional; conditions: read-out: GI
SK-MEL-1 = experiment: Antiproliferative activity against human SK-MEL-1 cells assessed as growth inhibition incubated at 10 uM for 24 hrs by MTT assay relative to control; assay type: functional; conditions: read-out: GI
[16] = target: Cyclin-dependent kinase 1 (Homo sapiens, UniProt P06493); experiment: Inhibition of CDK1 (unknown origin) by FRET assay
Chain of Cyclin-dependent kinase 1 (P06493 whole entry): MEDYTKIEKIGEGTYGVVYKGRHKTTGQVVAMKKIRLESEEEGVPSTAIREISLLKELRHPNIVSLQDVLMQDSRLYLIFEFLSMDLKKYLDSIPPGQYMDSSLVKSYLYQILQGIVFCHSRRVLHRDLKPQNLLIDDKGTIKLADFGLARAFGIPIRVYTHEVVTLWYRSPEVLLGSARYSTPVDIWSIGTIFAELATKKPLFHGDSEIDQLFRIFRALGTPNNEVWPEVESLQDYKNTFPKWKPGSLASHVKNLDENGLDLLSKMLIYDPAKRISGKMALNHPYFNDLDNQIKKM

T84 = experiment: Antiproliferative activity against human T84 cells assessed as growth inhibition incubated at 10 uM for 24 hrs by MTT assay relative to control; assay type: functional; conditions: read-out: GI
[17] = target: Protein-tyrosine kinase 2-beta (Homo sapiens, UniProt Q14289); experiment: Inhibition of PTK2B (unknown origin) by FRET assay
Chain of Protein-tyrosine kinase 2-beta (Q14289 whole entry): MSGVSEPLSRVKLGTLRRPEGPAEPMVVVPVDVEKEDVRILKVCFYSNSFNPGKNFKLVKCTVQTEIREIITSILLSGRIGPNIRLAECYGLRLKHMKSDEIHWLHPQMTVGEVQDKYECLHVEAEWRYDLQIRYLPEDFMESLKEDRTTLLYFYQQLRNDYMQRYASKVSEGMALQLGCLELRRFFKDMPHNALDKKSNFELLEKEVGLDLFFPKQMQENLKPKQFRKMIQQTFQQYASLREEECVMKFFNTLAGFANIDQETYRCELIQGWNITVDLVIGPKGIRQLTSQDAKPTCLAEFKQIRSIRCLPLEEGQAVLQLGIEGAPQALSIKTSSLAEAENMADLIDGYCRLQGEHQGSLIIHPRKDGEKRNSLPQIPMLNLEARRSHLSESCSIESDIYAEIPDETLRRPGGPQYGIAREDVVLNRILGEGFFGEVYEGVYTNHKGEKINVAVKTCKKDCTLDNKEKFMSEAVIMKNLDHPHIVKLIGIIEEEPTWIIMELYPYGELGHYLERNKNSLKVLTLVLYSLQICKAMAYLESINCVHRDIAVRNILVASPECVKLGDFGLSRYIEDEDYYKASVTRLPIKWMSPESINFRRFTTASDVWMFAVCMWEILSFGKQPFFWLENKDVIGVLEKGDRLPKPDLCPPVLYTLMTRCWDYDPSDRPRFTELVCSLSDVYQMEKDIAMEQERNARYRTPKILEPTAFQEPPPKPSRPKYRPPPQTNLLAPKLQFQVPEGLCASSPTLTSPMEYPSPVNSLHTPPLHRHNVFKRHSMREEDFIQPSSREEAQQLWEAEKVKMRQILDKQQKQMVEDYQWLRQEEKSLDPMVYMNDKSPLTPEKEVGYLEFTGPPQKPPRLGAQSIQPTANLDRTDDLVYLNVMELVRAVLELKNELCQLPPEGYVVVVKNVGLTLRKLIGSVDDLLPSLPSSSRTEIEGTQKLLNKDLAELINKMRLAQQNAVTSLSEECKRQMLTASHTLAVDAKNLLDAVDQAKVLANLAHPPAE

[18] = Antiproliferative activity against human PL45 cells assessed as growth inhibition incubated for 24 hrs by MTT assay; assay type: functional, cell-based; conditions: PL45, 24 h

Row | Structure (SMILES) | inhibition of growth at 10 µM (G-361) [%] | inhibition of growth at 10 µM (MOLT-4) [%] | inhibition of growth at 10 µM [1] [%] | IC50 [2] [nM] | IC50 [3] [nM] | inhibition of growth at 10 µM (MCF7) [%] | IC50 [4] [nM] | IC50 [5] [nM] | IC50 [6] [nM] | IC50 [7] [nM] | inhibition of growth at 10 µM (KG-1) [%] | inhibition of growth at 10 µM [9] [%] | Ratio IC50 [10] | IC50 [11] [nM] | inhibition of growth at 10 µM (A-375) [%] | Ratio IC50 [13] | IC50 [15] [nM] | inhibition of growth at 10 µM (HT-29) [%] | inhibition of growth at 10 µM (BT-549) [%] | inhibition of growth at 10 µM (SK-MEL-1) [%] | also measured
1 | S=C(Nc1cccc(Cl)c1)N1CCN(c2nnc(Cc3ccccc3)c3ccccc23)CC1 | 88 | 85 | 96.8 | 2490 | 7620 | 78.2 | 4290 | 135 | 8540 | 622 | 69.1 | 95.3 | 14 | 1160 | 76.1 | 3.04 | 880 | 84.3 | 79.3 | 85.4 | Activity [8]: 16%; Activity (MDA-PATC53 [12]): Active; Activity (MDA-PATC53 [14]): Active; IC50 [16]: 44.5 nM; inhibition of growth at 10 µM (T84): 81.7%; IC50 [17]: 8960 nM; IC50 [18]: 1140 nM
2 | COc1ccc(Cc2nnc(N3CCN(C(=S)Nc4ccc(OC)cc4)CC3)c3ccccc23)cc1 | 58.3 | 31.4 | 66.4 | 8410 | 3566 | 73.1 | 5650 | 452 | 1540 | 396 | 23.9 | 83.5 | 4.7 | 3050 | 47.9 | 5.36 | 6650 | 51.7 | 23.7 | 29.4 | IC50 [16]: 84.4 nM; inhibition of growth at 10 µM (T84): 19.3%; IC50 [17]: 3660 nM; IC50 [18]: 2100 nM
